Experimental data taken from patent US12351580B2, “NLRP3 modulators” (Innate Tumor Immunity, Inc., priority 2017, dated 2025).

Experiments:
[1] = target: T1, TLR7 (Homo sapiens, UniProt Q9NYK1); assay: In vitro human TLR7 binding reporter assay (HEK-Blue, NF-kB/AP1-inducible SEAP); assay type: cell-based; conditions: activity range symbols
T1 construct: host or cells: HEK-Blue cells (human HEK) co-expressing TLR7 and an NF-kB/AP1-inducible SEAP reporter
T1 sequence (Q9NYK1 27-1049): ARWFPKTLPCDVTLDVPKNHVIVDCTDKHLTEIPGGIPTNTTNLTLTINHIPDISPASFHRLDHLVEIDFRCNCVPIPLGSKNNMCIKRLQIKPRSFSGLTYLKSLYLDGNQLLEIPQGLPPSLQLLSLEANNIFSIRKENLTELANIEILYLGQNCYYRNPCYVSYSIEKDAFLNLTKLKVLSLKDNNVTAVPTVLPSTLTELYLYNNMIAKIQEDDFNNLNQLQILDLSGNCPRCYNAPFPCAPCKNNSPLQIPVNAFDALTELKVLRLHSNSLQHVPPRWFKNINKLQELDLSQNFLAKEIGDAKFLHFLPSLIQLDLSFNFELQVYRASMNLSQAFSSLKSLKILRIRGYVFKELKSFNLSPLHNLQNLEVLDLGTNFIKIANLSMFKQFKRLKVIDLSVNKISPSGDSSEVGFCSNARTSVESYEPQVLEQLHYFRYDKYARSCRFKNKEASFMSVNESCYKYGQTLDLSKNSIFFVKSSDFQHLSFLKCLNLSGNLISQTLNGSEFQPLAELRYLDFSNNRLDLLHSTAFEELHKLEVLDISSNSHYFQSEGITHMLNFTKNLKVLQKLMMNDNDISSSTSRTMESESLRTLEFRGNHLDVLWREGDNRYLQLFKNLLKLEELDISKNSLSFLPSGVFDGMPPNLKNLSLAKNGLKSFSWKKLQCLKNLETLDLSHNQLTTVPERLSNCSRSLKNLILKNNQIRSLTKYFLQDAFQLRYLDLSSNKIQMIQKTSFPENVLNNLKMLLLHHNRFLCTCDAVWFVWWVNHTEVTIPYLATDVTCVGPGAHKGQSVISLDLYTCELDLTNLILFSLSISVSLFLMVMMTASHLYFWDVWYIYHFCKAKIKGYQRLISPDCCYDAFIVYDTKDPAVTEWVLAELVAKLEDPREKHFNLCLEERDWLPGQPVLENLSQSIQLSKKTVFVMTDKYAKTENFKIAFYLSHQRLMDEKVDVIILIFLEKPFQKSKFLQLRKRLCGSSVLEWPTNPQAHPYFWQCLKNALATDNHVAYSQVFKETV
Summary of the method: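 Reporter cells are plated at 15,000 per well and rested 24 h. Next day, test compounds or DMSO are dispensed, followed by 18 h incubation at 37 °C, 5% CO2.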

[2] = target: T2, TLR8 (Homo sapiens, UniProt Q9NR97); assay: In vitro human TLR8 binding reporter assay (HEK-Blue, NF-kB/AP1-inducible SEAP); assay type: cell-based; conditions: activity range symbols
T2 construct: host or cells: HEK-Blue cells (human HEK) co-expressing TLR8 and an NF-kB/AP1-inducible SEAP reporter
T2 sequence (Q9NR97 27-1041): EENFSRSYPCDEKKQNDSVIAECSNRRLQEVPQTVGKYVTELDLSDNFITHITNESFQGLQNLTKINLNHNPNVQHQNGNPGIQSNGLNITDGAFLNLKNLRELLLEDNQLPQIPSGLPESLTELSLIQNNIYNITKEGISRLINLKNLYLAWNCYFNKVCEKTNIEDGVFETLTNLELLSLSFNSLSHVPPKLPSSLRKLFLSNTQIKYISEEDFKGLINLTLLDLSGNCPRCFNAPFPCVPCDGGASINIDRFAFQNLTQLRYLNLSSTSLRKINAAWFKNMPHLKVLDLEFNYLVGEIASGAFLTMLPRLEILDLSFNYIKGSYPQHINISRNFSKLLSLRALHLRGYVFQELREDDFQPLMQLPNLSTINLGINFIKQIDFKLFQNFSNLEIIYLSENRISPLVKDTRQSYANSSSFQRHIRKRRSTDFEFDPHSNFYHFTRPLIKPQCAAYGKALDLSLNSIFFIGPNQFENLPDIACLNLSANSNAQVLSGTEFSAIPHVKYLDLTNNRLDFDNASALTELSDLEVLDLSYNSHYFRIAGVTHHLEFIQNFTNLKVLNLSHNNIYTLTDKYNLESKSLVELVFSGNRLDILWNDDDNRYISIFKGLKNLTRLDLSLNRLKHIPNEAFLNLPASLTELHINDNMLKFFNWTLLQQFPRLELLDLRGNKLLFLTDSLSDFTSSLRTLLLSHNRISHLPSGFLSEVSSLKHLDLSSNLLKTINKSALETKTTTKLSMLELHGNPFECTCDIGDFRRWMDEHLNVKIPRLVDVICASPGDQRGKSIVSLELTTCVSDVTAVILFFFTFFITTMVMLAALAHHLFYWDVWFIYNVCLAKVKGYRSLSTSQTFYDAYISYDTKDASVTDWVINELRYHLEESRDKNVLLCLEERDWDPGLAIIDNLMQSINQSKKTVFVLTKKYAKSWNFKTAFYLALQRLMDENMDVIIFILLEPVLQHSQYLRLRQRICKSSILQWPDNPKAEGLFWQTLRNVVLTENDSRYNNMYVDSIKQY
Procedure: In Vitro Human TLR7 and TLR8 Binding Reporter Assays
Logarithmically-growing human HEK-Blue cells co-expressing a TLR7 or TLR8 gene and a NF-kB/AP1-inducible SEAP (secreted embryonic alkaline phosphatase; Invivogen, San Diego, CA) reporter gene are added to individual wells of a 384-well plate (15,000 cells per 20 μL per well) and maintained for 24 h at 37° C., 5% CO2. Test compounds or DMSO are distributed to separate wells the next day using acoustic liquid handling technology (100 nL per well) and cells are subsequently incubated for 18 h at 37° C., 5% CO2. Cellular SEAP production is measured using an Envision plate reader instrument thirty minutes after adding freshly-made Quanti-Blue reagent (prepared by following manufacturer instructions; Invivogen, San Diego, CA) to the HEK-Blue TLR Nf-kB-SEAP cell reactions. All EC50 values (half-maximal effective concentration) are determined using proprietary data analysis software.

| EC50 [1] | EC50 [2] | SMILES |
| --- | --- | --- |
| > 100 µM | > 100 µM | CCOC(=O)c1cc2c(cc1Br)nc(N)c1nc(CN(CC)C(C)=O)[nH]c12 [Compound 198] |
| > 100 µM | > 100 µM | CCN(Cc1nc2c(N)nc3ccc(Br)cc3c2[nH]1)C(=O)OC [Compound 200] |
| > 100 µM | > 100 µM | CCN(Cc1nc2c(N)nc3ccc(Br)cc3c2[nH]1)S(C)(=O)=O [Compound 201] |
| > 100 µM | > 100 µM | CCN(Cc1nc2c(N)nc3ccc(Br)cc3c2[nH]1)S(=O)(=O)c1ccc(C)cc1 [Compound 202] |
| > 100 µM | > 100 µM | CCN(Cc1nc2c(N)nc3ccc(Br)cc3c2[nH]1)C(=O)C(C)C [Compound 203] |
| > 100 µM | > 100 µM | CCN(Cc1nc2c(N)nc3ccc(Br)cc3c2[nH]1)C(=O)c1ccccc1 [Compound 204] |
| > 100 µM | > 100 µM | CCN(Cc1nc2c(N)nc3ccccc3c2n1CCC(=O)N1CCOCC1)C(=O)OC(C)(C)C [Compound 205] |
| > 100 µM | > 100 µM | CCN(Cc1nc2c(N)nc3ccc(-n4cccn4)cc3c2[nH]1)C(C)=O [Compound 207] |
| > 100 µM | > 100 µM | CCN(Cc1nc2c(N)nc3cc(Br)ccc3c2n1CCCC(=O)N1CCN(C)CC1)C(C)=O [Compound 209] |
| > 100 µM | > 100 µM | CCN(Cc1nc2c(N)nc3cc(Br)ccc3c2n1CCCC(=O)NC)C(C)=O [Compound 210] |
| > 100 µM | > 100 µM | CCN(Cc1nc2c(N)nc3ccccc3c2n1CCC(=O)N1CCN(C(=O)OC(C)(C)C)CC1)C(=O)OC(C)(C)C [Compound 211] |
| > 100 µM | > 100 µM | CCN(Cc1nc2c(N)nc3ccccc3c2n1CCC(=O)N1CCN(C(=O)OC(C)(C)C)CC1)C(C)=O [Compound 212] |
| > 100 µM | > 100 µM | CCN(Cc1nc2c(N)nc3cc(Br)ccc3c2n1CCCC(=O)N(C)C)C(C)=O [Compound 213] |
| > 100 µM | > 100 µM | CCN(Cc1nc2c(N)nc3cc(Br)ccc3c2n1CCCC(=O)N1CCOCC1)C(C)=O [Compound 214] |
| > 100 µM | > 100 µM | CN(C)C(=O)CCCn1c(CN2CCCC2=O)nc2c(N)nc3cc(Br)ccc3c21 [Compound 215] |
| > 100 µM | > 100 µM | COC(=O)CCCn1c(CN2CCCC2=O)nc2c(N)nc3cc(Cl)ccc3c21 [Compound 216] |
| > 100 µM | > 100 µM | CCN(Cc1nc2c(N)nc3cc(Cl)ccc3c2n1CCCC(=O)NC)C(C)=O [Compound 217] |
| > 100 µM | > 100 µM | CCN(Cc1nc2c(N)nc3cc(Br)ccc3c2n1CCCC(=O)OC)C(C)=O [Compound 218] |

| EC50 [1] | EC50 [2] | SMILES |
| --- | --- | --- |
| > 100 µM | > 100 µM | CCN(Cc1nc2c(N)nc3cc(Cl)ccc3c2n1CCCC(=O)OC)C(C)=O [Compound 219] |
| > 100 µM | > 100 µM | CCN(Cc1nc2c(N)nc3cc(Cl)ccc3c2n1CCCC(=O)N1CCOCC1)C(C)=O [Compound 220] |
| > 100 µM | > 100 µM | CCN(Cc1nc2c(N)nc3cc(Cl)ccc3c2n1CCCC(=O)N1CCN(C)CC1)C(C)=O [Compound 221] |
| > 100 µM | > 100 µM | CCN(Cc1nc2c(N)nc3cc(Cl)ccc3c2n1CCCC(=O)N1CCCC1)C(C)=O [Compound 222] |
| 20 to 100 µM | > 100 µM | CCN(Cc1nc2c(N)nc3ccccc3c2n1CCC(=O)N1CCS(=O)(=O)CC1)C(=O)OC(C)(C)C [Compound 223] |
| > 100 µM | 1 to 20 µM | CCNCc1nc2c(N)nc3cc(Br)ccc3c2[nH]1 [Compound 225] |
| > 100 µM | > 100 µM | CCN(Cc1nc2c(N)nc3cc(C(F)(F)F)ccc3c2n1CCCC(=O)NC)C(=O)OC(C)(C)C [Compound 226] |
| 20 to 100 µM | > 100 µM | CCNCc1nc2c(N)nc3cc(C(F)(F)F)ccc3c2n1CCCC(=O)OC [Compound 227] |
| > 100 µM | > 100 µM | CCN(Cc1nc2c(N)nc3cc(C(F)(F)F)ccc3c2n1CCCC(=O)N1CCOCC1)C(=O)OC(C)(C)C [Compound 228] |
| > 100 µM | > 100 µM | CCN(Cc1nc2c(N)nc3cc(C(F)(F)F)ccc3c2n1CCCC(=O)OC)C(C)=O [Compound 229] |
| > 100 µM | > 100 µM | COc1ccc(-c2ccc3c(c2)nc(N)c2nc(CN4CCCC4=O)[nH]c23)cc1 [Compound 230] |
| 1 to 20 µM | > 100 µM | CC(=O)NCc1nc2c(N)nc3ccccc3c2[nH]1 [Compound 233] |
| 20 to 100 µM | > 100 µM | Nc1nc2ccccc2c2[nH]c(CN3CCCC3=O)nc12 [Compound 278] |
| > 100 µM | > 100 µM | Nc1nc2cc(-c3cccnc3)ccc2c2[nH]c(CN3CCCC3=O)nc12 [Compound 279, 1-[(4-amino-7-pyridin-3-yl-1H-imidazo[4,5-c]quinolin-2-yl)methyl]pyrrolidin-2-one] |
| > 100 µM | > 100 µM | Nc1nc2cc(-c3ccccc3)ccc2c2[nH]c(CN3CCCC3=O)nc12 [Compound 280, 1-[(4-amino-7-phenyl-1H-imidazo[4,5-c]quinolin-2-yl)methyl]pyrrolidin-2-one] |
| > 100 µM | > 100 µM | Nc1nc2cc(-c3ccccc3Cl)ccc2c2[nH]c(CN3CCCC3=O)nc12 [Compound 281, 1-[[4-amino-7-(2-chlorophenyl)-1H-imidazo[4,5-c]quinolin-2-yl]methyl]pyrrolidin-2-one] |
| > 100 µM | > 100 µM | Cc1ccccc1-c1ccc2c(c1)nc(N)c1nc(CN3CCCC3=O)[nH]c12 [Compound 282, 1-[[4-amino-7-(2-methylphenyl)-1H-imidazo[4,5-c]quinolin-2-yl]methyl]pyrrolidin-2-one] |
| > 100 µM | > 100 µM | COc1ccccc1-c1ccc2c(c1)nc(N)c1nc(CN3CCCC3=O)[nH]c12 [Compound 283, 1-[[4-amino-7-(2-methoxyphenyl)-1H-imidazo[4,5-c]quinolin-2-yl]methyl]pyrrolidin-2-one] |
